Assay results published in patent US10188727B2, “Bifunctional molecules with antibody-recruiting and entry inhibitory activity against the human immunodeficiency virus” (YALE UNIVERSITY, priority 2009, dated 2019).
“Also recorded” adds a separate entry of the source. Read-outs that look alike come from different tables or passages of the source.

Assays:
CHO-gp120 cells [1] = test: Immunofluorescence microscopy, recruitment of labeled anti-DNP antibodies; type: cell-based, Chinese hamster; settings: ARM-H plus competing ligand
Protocol: Immunofluorescence (FIG. 3)
Confluent CHO-WT (env expressing) or CHO-K1 (non-env expressing) cells were incubated on cover slips (15CIR-1D, Fisher) over 2 nights at 37° C. in 5% CO2. Cover slips were washed with DPBS (1 mL, Gibco) and then cells fixed with 4% parafomaldehyde in DPBS at 4° C. for 10 minutes. […] Cover slips then washed with Buffer E (2×70 μl) and incubated with AlexaFluor488 rabbit anti-DNP IgG antibodies (Invitrogen) at 15 μg/ml in Buffer E (70 μl) for 1 hr at 4° C. All cover slips were washed prior to mounting onto slides using Gel Mount mounting medium (Biomeda Corp.) with Buffer E and water. Corresponding competition experiments were performed in the presence of recombinant human T-cell CD4 (ImmunoDiagnostics, Inc; Woburn, Mass.), BMS-378806 (1) and DNP-PEG-alkyne (2). Cells were checked using a Zeiss Axiovert 200M fluorescence microscope equipped with a GFP filter.

CD4-gp120 interaction = CD4-gp120 interaction (Human immunodeficiency virus type 1, UniProt Q75760); test: CD4 inhibition ELISA (competition ELISA, sCD4 binding to immobilized gp120); set-up: species or system HIV-1
Protocol: CD4 Inhibition ELISA (FIG. 2A)
This procedure was adapted from the protocol reported by Lin, et al.^14. 96 well plates (Nunc; Immuno) were coated overnight at 4° C. with soluble recombinant HIV-1 gp120JRFL (Immune Technology; Yonkers, N.Y.) at 1 μg/ml in 0.05M Buffer A (carbonate/bicarbonate, pH=9.6, Aldrich). Plates were washed with PBS (Aldrich, 1×100 μL) and then blocked with 3% nonfat milk in phosphate buffered saline solution (PBS, Aldrich) for 1 hr at room temperature. After washing with Buffer B (50 mM Tris HCl, 100 mM NaCl, 0.05% Tween-20, pH 7.4), varying concentrations of the inhibitor were added simultaneously with recombinant human T-cell CD4 (ImmunoDiagnostics, Inc; Woburn, Mass.) in Buffer C (50 mM Tris HCl, 100 mM NaCl, 1% BSA, pH 7.4) so that the final concentration/well of CD4 is 0.1 μg/mL and plates were incubated for 1 hr at room temperature. Plates were washed with Buffer B (3×100 μL) and then incubated with mouse OKT4 anti-CD4 IgG antibody (Biolegend; San Diego, Calif.) at 0.36 μg/ml in Buffer C at RT for 1 hr. Following washes with Buffer B, plates were incubated with horse radish peroxidase (HRP)-conjugated goat anti-mouse antibody (1:2500; Biolegend; San Diego, Calif.). Bound antibody was detected with 3,3,5,5-tetramethylbenzidine (TMB, Pierce Protein Research Products), the chromogenic substrate for HPR, and absorbance was read at 450 nm. […]

wild-type HIV IIIB = test: MT-2 cell assay, antiviral activity (MTT); type: cell-based, HIV-1
Protocol: (§1) Antiviral activity and cellular toxicity were determined using the MTT colorimetric method^7,8. MT-2 cell^9,10 at a concentration of 1×10^5 cells per milliliter were infected with wild-type HIV IIIB^11,12,13 at a multiplicity of infection (MOI) of 0.1. Infected and mock-infected cells were incubated in growth medium (RPMI 1640, 10% δFBS, kanamycin) for 5 days with varying concentrations of each compound being tested in triplicate in a 96-well plate. MIT (thiazolyl blue tetrazolium bromide), a cell-permeable tetrazolium dye was then added to each well. Active mitochondria reduce the yellow tetrazolium salt to a blue formazan precipitate. After 5 h, stop solution (86% isopropanol, 4% NP-40, 10% H2O, and 0.3% concentrated HCl) was added to lyse the cells and stop the reaction. The plates were gently shaken gently overnight on a horizontal rotator, and quantitated the following morning. Cell viability was measured spectrophotometrically by quantifying the amount of purple precipitate via determining the absorbance at 595 nm using a Multiskan Plus from Labsystems (Helsinki, Finland) microplate reader. The average of these triplicate samples was then plotted versus inhibitor concentration to generate dose-response curves. The 50% effective concentration (EC50) and 50% cytotoxic concentration (CC50) of the compounds were defined as the concentrations required to inhibit viral replication and to reduce the number of viable cells by 50%, respectively. Positive controls were done during each set of experiments using d4T and the appropriate parent NNRTI (HI-236 or TMC-derivative). Data were quantitated using KaleidaGraph (Synergy Software). ^7. Mosmann, T. J. Immunol Methods 1983, 65, 55-63.^8. Pannecouque, C.; Daelemans, D.; Clercq, E. D. Nat Protoc. 2008, 3, 427-434.^9. Haertle, T.; Carrera, C. J.; Wasson, D. B.; Sowers, L. C.; Richman, D. D.; Carson, D. A. J. Biol Chem. 1988, 263, 5870-5875.^10. Harada, S.; Koyanagi, Y.; Yamamoto, N. Science 1985, 229, 563-566.^11. Popovic, M.; Read-Connole, E.; Gallo, R. C. […] Popovic, M.; Samgadharan, M. G.; Read, E.; Gallo, R. C. […]

CHO-K1 cells = test: Flow cytometry detection of DNP labeling; type: cell-based, Chinese hamster; settings: higher concentrations of labeling reagent, data not shown
Protocol: Flow Cytometry Detection of DNP Labeling (FIG. 9)
CHO-K1 cells taken from a T-75 flask (˜80% confluent), were washed once with DPBS (Gibco, 5 mL), and cells were then detached with 2.5 mM EDTA/0.5 mM EGTA in DPBS. Resulting cell suspension was centrifuged at 900 rpm for five minutes, then pellet was aspirated and re-suspended at a density of 1.40×10^6 cells/mL in F12-K growth medium. Cells were incubated with 2,4-dinitrobenzenesulfonic acid (TCI, 50 mg/mL solution in MeOH) at varying concentrations for 30 min. at room temperature. Cells centrifuged and washed with growth medium (×3) and then aliquoted (0.5 ml) into Eppendorf tubes at a cell density of 1.40×10^6 cells/mL. Cells incubated with AlexaFluor 488 conjugated rabbit anti-DNP IgG (Invitrogen) antibodies (20 μg/mL) for 1 hr at 4° C. Cells were subsequently centrifuged, washed with DPBS (3×0.5 mL), resuspended in 0.5 mL DPBS containing 150 μg of propidium iodide (to monitor cell death) and immediately analyzed for fluorescence using a FACSCalibur flow cytometer (Becton Dickinson) monitoring at least 10,000 events/measurement. Data were analyzed using FlowJo Analysis Software (Tree Star).

MT-2 cells = test: MT-2 cell assay, cellular toxicity in mock-infected cells (MTT); type: cell-based, human; settings: control MT-2 cultures lacking HIV virus
Protocol: as §1, with “The 50% effective concentration (EC50) and 50% cytotoxic concentration (CC50) of the compounds were defined as the concentrations required to inhibit viral replication and to reduce the number of viable cells by 50%, respectively. Positive controls were done during each set of experiments using d4T and the appropriate parent NNRTI (HI-236 or TMC-derivative).” left out, “Mosmann, T. J. Immunol Methods 1983, 65, 55-63.^8. Pannecouque, C.; Daelemans, D.; Clercq, E. D. Nat Protoc. 2008, 3, 427-434.^9. Haertle, T.; Carrera, C. J.; Wasson, D. B.; Sowers, L. C.; Richman, D. D.; Carson, D. A. J. Biol Chem. 1988, 263, 5870-5875.^10. Harada, S.; Koyanagi, Y.; Yamamoto, N. Science 1985, 229, 563-566.^11.” left out

CHO-gp120 cells [2] = test: CDC assay (complement-dependent cytotoxicity) on Env-expressing cells; type: cell-based, Chinese hamster
Protocol: CDC Assay (FIG. 4 and FIG. 8)
CHO-WT or CHO-K1 cells taken from a T-75 flask (˜80% confluent), were washed once with DPBS (Gibco, 5 mL), and cells were then detached with 2.5 mM EDTA/0.5 mM EGTA in DPBS. Resulting cell suspension was centrifuged at 900 rpm for five minutes, then pellet was aspirated and re-suspended at a density of 9.00×10^5 cells/mL in Buffer E. Subsequently, cell suspension was added to prepared dilutions of ARM-H (4) (or control molecule) in Buffer E. Resulting cell mixtures were plated in triplicate (50 μL, 22,500 cells/well)□ onto 96 well plates (CoStar, black sides/clear bottom), covered with tin foil and incubated at 4° C. for 1.5 hours. To each well, 50 μL of 20% rabbit complement serum (v/v, Aldrich) and 100 μg/mL rat anti-DNP IgG (Zymed; Carlsbad, Calif.) in Buffer E was added, resulting in a 10% (v/v) complement and 50 μg/mL antibody concentration per well. Negative control wells containing only ARM-H dilutions were prepared in addition to maximum cell death controls (0.15% H2O2). Covered plate was incubated for an additional hour at 4° C. and then for 4 hours at room temperature. All control experiments were conducted following the same protocol. Cell viability was determined using the luciferase-based CellTiter-Glo Luminescent Cell Viability Assay (Promega). Complement mediated cell death and cytotoxicity was calculated as: [1−((sample-max killing)/(untreated-max killing))]×100 and plotted using GraphPad Prism. Raw data was subjected to Dixon Q-test analysis at the 90% confidence interval and statistical outliers removed accordingly^16,17. ^16. Dean, R. B.; Dixon, W. J. Anal. Chem. 1951, 23, 636-638.^17. Efstathiou, C. E. Talanta 2006, 69, 1068-1071.

C#CCOCCOCCOCCOCCNc1ccc([N+](=O)[O-])cc1[N+](=O)[O-] [Formula 2, N-(2,4-dinitrophenyl)-3,6,9,12-tetraoxapentadec-14-yn-1-amine]
fluorescence of ARM-H-recruited anti-DNP antibodies in the presence of competing ligand (CHO-gp120 cells [1]): considerably diminished

COc1ccnc2[nH]cc(C(=O)C(=O)N3CCN(C(=O)c4ccccc4)C[C@H]3C)c12 [Formula 1, 4-benzoyl-1-(2-(4-methoxy-1H-pyrrolo(2,3-b)pyridin-3-yl)-1,2-dioxoethyl)-2-methyl-, (2R)-Piperazine, reference compound]
IC50 (CD4-gp120 interaction): 1.3 µM
fluorescence of ARM-H-recruited anti-DNP antibodies in the presence of competing ligand (CHO-gp120 cells [1]): considerably diminished
IC50 (wild-type HIV IIIB; Human immunodeficiency virus 1, IIIB, MT2, read-out: IC50, HIV-1 inhibition in MT-2 cell assay): 0.32 µM

O=[N+]([O-])c1ccc(S(=O)(=O)O)c([N+](=O)[O-])c1 [dinitrobenzenesulfonic acid, 2,4-dinitrobenzenesulfonic acid]
cell death on labeling of CHO-K1 cells (CHO-K1 cells): Significant cell death

Cc1cn([C@H]2C=C[C@@H](CO)O2)c(=O)[nH]c1=O [d4T]
IC50 (wild-type HIV IIIB; live HIV-1, human MT-2 T-cell line, read-out: IC50, HIV-1 inhibition in MT-2 cell assay): 4.2 µM

C[C@@H]1CN(C(=O)c2ccccc2)CCN1C(=O)C(=O)c1c[nH]c2nccc(OCCOCCOCCOCCOCCOCCn3cc(COCCOCCOCCOCCNc4ccc([N+](=O)[O-])cc4[N+](=O)[O-])nn3)c12 [ARM-H]
IC50 (CD4-gp120 interaction): ~8.7 µM
IC50 (wild-type HIV IIIB; Human immunodeficiency virus 1, IIIB, MT2, live HIV-1, human MT-2 T-cell line, read-out: IC50, HIV-1 inhibition in MT-2 cell assay): 6.4 µM
cytotoxicity in MT-2 cells (MT-2 cells): no observable cytotoxicity; also recorded: no non specific cytotoxicity
non specific cytotoxicity in CHO cell lines (CHO-gp120 cells [2]; CHO cell lines): no non specific cytotoxicity
cell death without antibody and complement (CHO-gp120 cells [2]; CHO-gp120 cells, absence of anti-DNP antibody and complement-preserved serum): no cell death was observed
concentrations at which inhibition of HIV entry and CDC activity were both operative (CHO-gp120 cells [2]; MT-2 entry inhibition and CDC together): 6 to 30 µM
